Data: US8394971B2, “Indole derivatives as selective androgen receptor modulators (SARMS)” (Janssen Pharmaceutica N.V., priority 2004, dated 2013)
Like-named read-outs stand apart in the source and are kept apart here.

Columns and labels:
[1] = target: T1, androgen receptor (rat ventral prostate cytosol) (Rattus norvegicus, UniProt P15207); assay: Androgen Receptor Binding Using Rat Ventral Prostate Cytosol; conditions: for % Inhibition: 1 µM
T1 construct: from tissue; host or cells: ventral prostate of castrated male Sprague Dawley or Wistar rats, cytosol
T1 sequence (P15207 1-902): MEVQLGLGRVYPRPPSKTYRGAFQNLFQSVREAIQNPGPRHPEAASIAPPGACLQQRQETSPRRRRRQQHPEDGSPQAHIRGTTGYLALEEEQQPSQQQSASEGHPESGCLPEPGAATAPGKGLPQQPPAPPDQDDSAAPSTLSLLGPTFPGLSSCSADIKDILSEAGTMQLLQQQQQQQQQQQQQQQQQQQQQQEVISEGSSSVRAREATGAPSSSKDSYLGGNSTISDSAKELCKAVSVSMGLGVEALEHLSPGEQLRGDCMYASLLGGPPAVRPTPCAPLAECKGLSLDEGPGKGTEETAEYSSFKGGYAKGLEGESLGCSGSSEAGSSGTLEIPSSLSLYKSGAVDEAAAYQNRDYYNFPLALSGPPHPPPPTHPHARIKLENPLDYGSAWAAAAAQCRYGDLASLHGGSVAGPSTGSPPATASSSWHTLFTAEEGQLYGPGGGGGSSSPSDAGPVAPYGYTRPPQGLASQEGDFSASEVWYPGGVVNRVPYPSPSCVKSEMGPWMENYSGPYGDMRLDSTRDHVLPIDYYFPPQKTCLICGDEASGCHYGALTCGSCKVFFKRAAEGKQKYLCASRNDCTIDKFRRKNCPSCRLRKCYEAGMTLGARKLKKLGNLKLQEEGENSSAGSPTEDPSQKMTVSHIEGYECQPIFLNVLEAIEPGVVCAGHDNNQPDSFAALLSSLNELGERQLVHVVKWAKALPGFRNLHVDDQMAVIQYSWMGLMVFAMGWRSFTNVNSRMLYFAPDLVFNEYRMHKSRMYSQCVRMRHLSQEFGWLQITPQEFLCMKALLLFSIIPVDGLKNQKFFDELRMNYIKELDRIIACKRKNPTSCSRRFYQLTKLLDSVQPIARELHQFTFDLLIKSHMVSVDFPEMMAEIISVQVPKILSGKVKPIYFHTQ
Method: The assay was run on a 96 well plate with each well filled with a total reaction volume 150 μL, of a solution containing 5 pmol androgen receptor LBD (Panvera) or 30 μL of freshly prepared rat cytosol, 0.5 nM [^3H] […] (TED buffer contains 10 mM Tris.HCl pH 7.4, 1 mM sodium molybdate, 1.5 mM EDTA, 1 mM DTT and 10% (v/v) glycerol.)
On day one, the solution containing receptor, tracer and TED buffer was distributed into a 96 well plate. Diluted test compound or control vehicle was then added to individual wells and the plate incubated at 4° C. overnight.
On day two, to each well was then added 20 μL human γ-globulin (ICN 823102), prepared at 25 mg/ml in TE pH 8.0, and 55 μL 40% polyethylene glycol 8000 (JT Baker U222-08), prepared in TE pH 8.0. The plate was incubated at 4° C. for 60 minutes. During incubation, the harvester was rinsed with 10% PEG 8000, prepared in TE pH 8.0, and a GF/C Unifilter-96 was pre-wet with 10% PEG. The binding reaction was filtered, the retentate was washed three times with 10% PEG and dried under vacuum for a couple of minutes, then dried at 50° C. for 5 min and the plate was bottom sealed. Next, 25 μL of Microscint-20 (Packard) was added to the filter wells and the plate was top sealed. The plate wells were then counted on a TopCount (Packard).
Rat Prostate Cytosol Preparation:
Male Sprague Dawley or Wistar rats (Charles River, 200-300 g) were used for each preparation. The day before preparing the cytosol, the rats were castrated using standard surgical procedures.
The rats were euthanized by carbon dioxide asphyxiation. The rat prostates were quickly removed and placed on ice in pre-chilled, pre-weighed 50 mL plastic tubes. No more than five prostates were placed into one tube. The tubes were then weighed and the prostate tissue wet weights calculated.
To the chilled prostate tissue was then added […] of chilled homogenization buffer. The homogenization buffer was freshly prepared by mixing 10 mM Tris.HCl, pH 7.4, 1 mM sodium molybdate, 1.5 mM EDTA, 1 mM dithiothreitol, 10% (v/v) glycerol and 1% protease inhibitor cocktail (Sigma P 8340).
The prostate tissue was homogenized in a cold room using a pre-chilled Polytron PT3000 homogenizer (Brinkmann). Homogenization was performed at a speed setting of 20, three times for 10 sec bursts. The tubes containing the prostate tissue was kept on ice while homogenizing. The homogenate was allowed to rest on ice for 20 sec between bursts.
The homogenate was then placed into pre-chilled 3 mL polycarbonate ultracentrifuge tubes and centrifuged in the TLA-100 rotor of a TL-100 ultracentrifuge for 12 min at 100,000 rpm at 4° C. The resulting supernatant was stored in 1 mL aliquots at −80° C. until needed.
Binding to the androgen receptor was determined according to the protocol described in Example 86 using the above prepared rat cytosol.
% Inhibition was determined by testing dilutions of the test compound (usually duplicates of 10 μM) in the binding assay. Counts per well were measured and percents of inhibition determined. […] Counts per well were measured and IC50s determined by linear regression.

[2] = target: T2, androgen receptor (adenovirus AdEasy+rAR in COS-7 cells) (Rattus norvegicus, UniProt P15207); assay: COS-7 Whole-Cell Androgen Receptor Binding Assay, Adenovirus Transduction; conditions: COS binding; 3000 nM unless otherwise noted
T2 construct: expressed in transfected cells
T2 sequence (P15207 1-902): T1 sequence (P15207 1-902)

[3] = target: T3, androgen receptor (adenovirus AdEasy+rAR in L929 cells) (Rattus norvegicus, UniProt P15207); assay: L929 Androgen Receptor Functional Assay, Adenovirus Transduction; format: cell-based; conditions: L929 agonist testing
T3 construct: expressed in transfected cells
T3 sequence (P15207 1-902): T1 sequence (P15207 1-902)
Outline: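 Luminescent reporter readout after 48 h at 37 °C: rat AR delivered by adenovirus (AdEasy+rAR, moi 1:500) into L929 cells grown without phenol red in charcoal-treated serum. Antagonist wells also received R1881 (2.5× dilution at 2.5 nM).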

[4] = tested on: testosterone-enhanced ventral prostate and seminal vesicle weights in castrated male Sprague Dawley rats; assay: Ventral Prostate and Seminal Vesicle Weight In Vivo Assay; set-up: species or system rat; conditions: immature castrated rats; once daily for five days, usually orally at 40 mg/kg, with testosterone propionate 2 mg/kg s.c.
Outline: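 Immature (~50 g) castrated Sprague Dawley rats dosed once daily for five days with compound (usually oral, 40 mg/kg, cyclodextrin or methylcellulose vehicle) plus testosterone propionate 2 mg/kg s.c. Wet ventral prostate and seminal vesicle weights taken on day six; activity judged by prostate weight or body-weight-adjusted % inhibition.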

[5] = rat cytosol, concentration 1000 nM

Structure (SMILES) | inhibition at 3 µM [2] [%] | active / inactive (inhibition of testosterone-enhanced prostate weight) [4] | % Activity ([3]; 3000 nM) [%] | also measured
Cc1ccc(CN2CCC(O)(c3cc4cc([N+](=O)[O-])c(C(F)(F)F)cc4[nH]3)CC2)cc1 [Compound #42] | – | – | – | % Inhibition [1]: 23%; IC50 ([1]; rat cytosol, read-out: IC50): 7100 nM
CC(O)(CS(=O)(=O)c1ccc(N)cc1)c1cc2cc(Cl)c(C(F)(F)F)cc2[nH]1 (stereo not shown) [compound 118] | 62 | inactive | – | % Activity ([3]; @ 8000 nM): −2 @ 8000 nM %
OC1(c2cc3cc(Cl)c(C(F)(F)F)cc3[nH]2)CCN(Cc2ccc(Cl)c(Cl)c2)CC1 [compound 36] | – | – | – | IC50 ([1]; IC50 (nM)): > 100000 nM; inhibition at 1 µM [1, 5]: -34%
CC(C)SCC(C)(O)c1cc2cc([N+](=O)[O-])c(C(F)(F)F)cc2[nH]1 (stereo not shown) [compound 164] | 68 | inactive | 2 | –
CC(O)(CSCC(F)(F)F)c1cc2cc([N+](=O)[O-])c(C(F)(F)F)cc2[nH]1 (single isomer, unassigned) [compound 202] | – | active | – | % Inhibition [2]: 50%; % Activity ([3]; 3000 nM, 3 µM): 1%
CC(O)(CSCc1cccs1)c1cc2cc([N+](=O)[O-])c(C(F)(F)F)cc2[nH]1 (stereo not shown) [compound 197] | 86 | inactive | 2 | –
OC1(c2cc3cc(Cl)c(C(F)(F)F)cc3[nH]2)CCN(Cc2ccc(Cl)cc2)CC1 [compound 31] | – | – | – | inhibition at 1 µM [1, 5]: 20%; IC50 ([1]; rat cytosol, read-out: IC50): 4050 nM
CCC(O)(CSCC(F)(F)F)c1cc2cc(F)c(C(F)(F)F)cc2[nH]1 (stereo not shown) [compound 194] | 80 | inactive | 2 | –
CCC(O)(CS(=O)(=O)CC(F)(F)F)c1cc2cc([N+](=O)[O-])c(C(F)(F)F)cc2[nH]1 (stereo not shown) [compound 191] | 65 | active | 2 | –
CC(O)(CS(C)(=O)=O)c1cc2cc([N+](=O)[O-])c(C(F)(F)F)cc2[nH]1 (stereo not shown) [compound 140] | – | active | 0 | % Inhibition [2]: 51.5%
CCSCC(C)(OC)c1cc2cc(C#N)c(C(F)(F)F)cc2n1C (stereo not shown) [compound 235] | 78 | inactive | 3 | –
O=[N+]([O-])c1cc2cc(C3(O)CCN(Cc4ccc(Cl)cc4)CC3)[nH]c2cc1C(F)(F)F [compound 41] | – | – | – | % Inhibition [1, 5]: 20%; IC50 ([1]; rat cytosol, read-out: IC50): 2300 nM
CC(O)(CSc1ccc(N)cc1)c1cc2cc(Cl)c(C(F)(F)F)cc2[nH]1 (stereo not shown) [compound 104] | 94 | inactive | 9 | –
CC(O)(CSCC(F)(F)F)c1cc2cc([N+](=O)[O-])c(C(F)(F)F)cc2[nH]1 (stereo not shown) [compound 201] | – | inactive | – | % Inhibition [2]: 86%; % Activity ([3]; 3000 nM, 3 µM): 2%
O=[N+]([O-])c1cc2cc(C3(O)CCN(Cc4ccc(Cl)cc4)CC3)[nH]c2cc1C(F)(F)F [compound 40] | – | – | – | % Inhibition [1, 5]: −2.5%; IC50 ([1]; rat cytosol, read-out: IC50): 3800 nM
